{"source": "ChEMBL document CHEMBL5365531", "about": "“Structure-Activity Relationship Studies of SARS-CoV-2 Main Protease Inhibitors Containing 4-Fluorobenzothiazole-2-carbonyl Moieties” (J Med Chem, 2023)", "key": {"[1]": {"assay": "Mutagenicity in Salmonella typhimurium TA98 assessed as inhibition of bacterial growth at 0.152 to 333 ug incubated in absence of S9 fraction by micro-Ames test", "format": "toxicity, Salmonella enterica subsp. enterica serovar Typhimurium", "details": "in vivo; dose 0.152-333 µg"}, "[2]": {"tested_on": "MT2", "assay": "Cytotoxicity against human MT2 cells assessed as reduction in cell viability at 10 uM incubated for 12 days by CCK-8 assay", "format": "toxicity, cell-based", "details": "mt2, 288 h, time 12 day"}, "[3]": {"assay": "Mutagenicity in Salmonella typhimurium TA1537 assessed as inhibition of bacterial growth at 0.152 to 333 ug incubated in presence of S9 fraction by micro-Ames test", "format": "toxicity, subcellular, Salmonella enterica subsp. enterica serovar Typhimurium", "details": "dose 0.152-333 µg"}, "[4]": {"assay": "Mutagenicity in Escherichia coli WP2uvrA assessed as inhibition of bacterial growth at 0.152 to 333 ug incubated in presence of S9 fraction by micro-Ames test", "format": "toxicity, subcellular", "details": "dose 0.152-333 µg"}, "[5]": {"assay": "Mutagenicity in Salmonella typhimurium TA100 assessed as inhibition of bacterial growth at 0.152 to 333 ug incubated in absence of S9 fraction by micro-Ames test", "format": "toxicity, Salmonella enterica subsp. enterica serovar Typhimurium", "details": "in vivo; dose 0.152-333 µg"}, "[6]": {"assay": "Mutagenicity in Salmonella typhimurium TA100 assessed as inhibition of bacterial growth at 0.152 to 333 ug incubated in presence of S9 fraction by micro-Ames test", "format": "toxicity, subcellular, Salmonella enterica subsp. enterica serovar Typhimurium", "details": "dose 0.152-333 µg"}, "[7]": {"tested_on": "SARS-CoV-2", "assay": "Antiviral activity against SARS-CoV-2 hCoV-19/Japan/TKYS02037/2022 (omicron BA.2) infected in Vero E6 cells preincubated with cells for 1 day followed by viral infection and measured after 3 days by qRT-PCR analysis", "format": "functional, organism-based", "details": "Severe acute respiratory syndrome coronavirus 2, hCoV-19/Japan/TKYS02037/2022 (omicron BA.2), Vero C1008"}, "[8]": {"tested_on": "Vero C1008", "assay": "Cytotoxicity against African green monkey Vero E6 cells infected with SARS-CoV-2 WK-521 upto 100 uM incubated for 3 days by immunostaining analysis", "format": "toxicity, cell-based", "details": "chlorocebus sabaeus, vero c1008, 72 h, time 3 day"}, "[9]": {"tested_on": "SARS-CoV-2", "assay": "Antiviral activity against SARS-CoV-2 infected in Vero E6 cells preincubated with cells for 1 day in absence of HCl followed by viral infection and measured after 3 days by qRT-PCR analysis", "format": "functional, organism-based", "details": "Severe acute respiratory syndrome coronavirus 2, Vero C1008"}, "[10]": {"tested_on": "SARS-CoV-2", "assay": "Antiviral activity against SARS-CoV-2 infected in Vero E6 cells preincubated with cells for 1 day followed by viral infection and measured after 3 days by qRT-PCR analysis", "format": "functional, organism-based", "details": "Severe acute respiratory syndrome coronavirus 2, Vero C1008"}, "[11]": {"assay": "Mutagenicity in Salmonella typhimurium TA1537 assessed as inhibition of bacterial growth at 0.152 to 333 ug incubated in absence of S9 fraction by micro-Ames test", "format": "toxicity, Salmonella enterica subsp. enterica serovar Typhimurium", "details": "in vivo; dose 0.152-333 µg"}, "[12]": {"assay": "Mutagenicity in Escherichia coli WP2uvrA assessed as inhibition of bacterial growth at 0.152 to 333 ug incubated in absence of S9 fraction by micro-Ames test", "format": "toxicity", "details": "in vivo; dose 0.152-333 µg"}, "[13]": {"tested_on": "SARS-CoV-2", "assay": "Antiviral activity against SARS-CoV-2 infected in Vero E6 cells preincubated with cells for 1 day in presence of HCl treated compound followed by viral infection and measured after 3 days by qRT-PCR analysis", "format": "functional, organism-based", "details": "Severe acute respiratory syndrome coronavirus 2, Vero C1008"}, "[14]": {"tested_on": "MOLT-4", "assay": "Cytotoxicity against human MOLT-4 cells assessed as reduction in cell viability at 10 uM incubated for 12 days by CCK-8 assay", "format": "toxicity, cell-based", "details": "molt-4, 288 h, time 12 day"}, "[15]": {"assay": "Mutagenicity in Salmonella typhimurium TA1535 assessed as inhibition of bacterial growth at 0.152 to 333 ug incubated in presence of S9 fraction by micro-Ames test", "format": "toxicity, subcellular, Salmonella enterica subsp. enterica serovar Typhimurium", "details": "dose 0.152-333 µg"}, "[16]": {"assay": "Cytotoxicity against African green monkey Vero E6 cells incubated for 3 days by WST-8 assay", "format": "toxicity, cell-based, Vero C1008", "details": "chlorocebus sabaeus, time 3 day"}, "[17]": {"assay": "Mutagenicity in Salmonella typhimurium TA1535 assessed as inhibition of bacterial growth at 0.152 to 333 ug incubated in absence of S9 fraction by micro-Ames test", "format": "toxicity, Salmonella enterica subsp. enterica serovar Typhimurium", "details": "in vivo; dose 0.152-333 µg"}, "[18]": {"assay": "Mutagenicity in Salmonella typhimurium TA98 assessed as inhibition of bacterial growth at 0.152 to 333 ug incubated in presence of S9 fraction by micro-Ames test", "format": "toxicity, subcellular, Salmonella enterica subsp. enterica serovar Typhimurium", "details": "dose 0.152-333 µg"}, "[19]": {"tested_on": "PBMC", "assay": "Cytotoxicity against human PBMC cells assessed as reduction in cell viability at 10 uM incubated for 12 days by CCK-8 assay", "format": "toxicity, cell-based", "details": "288 h, time 12 day"}}, "note": "pEC50: −log10 of the molar value.", "data": [{"smiles": "CC(C)(C)[C@H](NC(=O)C(F)(F)F)C(=O)N1C[C@H]2[C@@H]([C@H]1C(=O)N[C@H](C#N)C[C@@H]1CCNC1=O)C2(C)C", "values": [{"measurement": "Activity", "setting": "[1]", "result": "Non-Toxic"}, {"measurement": "Activity", "setting": "[2]", "result": "Non-Toxic"}, {"measurement": "Activity", "setting": "[3]", "result": "Non-Toxic"}, {"measurement": "Activity", "setting": "[4]", "result": "Non-Toxic"}, {"measurement": "Activity", "setting": "[5]", "result": "Non-Toxic"}, {"measurement": "Activity", "setting": "[6]", "result": "Non-Toxic"}, {"measurement": "pEC50", "setting": "[7]", "result": 5.85}, {"measurement": "Activity", "setting": "[8]", "result": "Non-Toxic"}, {"measurement": "pEC50", "setting": "[9]", "result": 5.85}, {"measurement": "pEC50", "setting": "[10]", "result": 5.80}, {"measurement": "Activity", "setting": "[11]", "result": "Non-Toxic"}, {"measurement": "Activity", "setting": "[12]", "result": "Non-Toxic"}, {"measurement": "pEC50", "setting": "[13]", "result": 5.60}, {"measurement": "Activity", "setting": "[14]", "result": "Non-Toxic"}, {"measurement": "Activity", "setting": "[15]", "result": "Non-Toxic"}, {"measurement": "CC50 at 72 h", "setting": "[16]", "result": "> 100000", "unit": "nM"}, {"measurement": "Activity", "setting": "[17]", "result": "Non-Toxic"}, {"measurement": "Activity", "setting": "[18]", "result": "Non-Toxic"}, {"measurement": "Activity", "setting": "[19]", "result": "Non-Toxic"}]}]}
